According to patent publication US8278358B2, “Lipoic acid derivatives” (Omnica GmbH, priority 2006, dated 2012):

How the values were obtained:
[1] = Reducing power assay (reduction of Iron-III to Iron-II); type: biochemical
Protocol: The assay is based on the reduction of Iron-III to Iron-II. Results are expressed as % reduction when compared to the control which reduced all Iron-III at a concentration of 5 mg/mL.

[2] = Inhibition of the autooxidation of linoleic acid; type: biochemical; conditions: 50° C., up to 72 hours
Protocol: As a positive control (full inhibition) 10 mM butyl-hydroxytoluene (BHT)/L was introduced. Each sample was prepared in 3 replicates. […] Each sample was prepared in 3 replicates. Samples were incubated with light protection at 50° C.

[3] = Stability in CaCo-2 incubation medium (Free and Total LA/DHLA in medium); type: in vitro ADME; conditions: for Total LA in medium (after NaBH4 reduction) / Free LA in medium: 1 mg LA/ml or 1.46 mg LAORN/ml medium
Protocol: For stability investigations, the incubation medium was incubated at 37° C. for 1 hour. Thereafter, the medium was centrifuged and used for further analysis.

[4] = system: CaCo-2 cells; experiment: CACO-2 absorption test (Free and Total LA/DHLA in cells); type: in vitro ADME
[5] = Protection of lutein esters, milling/mixing method, 60° C. for 4 hours; type: physicochemical; conditions: mix method
Protocol: 300 mg lutein esters and 30 mg α-Tocopherol were added to a mortar, completely milled and maintained at a temperature of 60° C. for 4 hours. The lutein content was measured with the UV-Visible spectrophotometric method as described above. […] The lutein content was measured with a UV-Visible spectrophotometer as described above. 300 mg lutein esters and a predetermined amount of lipoic acid were placed in a mortar, milled and then subjected to an elevated temperature of 60° C. for 4 hours. The lutein content was determined by the UV-Visible spectrophotometric method described above.

| Structure (SMILES) | % Reduction compared to Control ([1]; Conc. 1 mg/mL) | % Reduction compared to Control ([1]; Conc. 5 mg/mL) | % Reduction compared to Control ([1]; Conc. 10 mg/mL) | protection against autooxidation of linoleic acid ([2]; FIG. 7: 5 mM LA/L, 5 mM ORN/L, 5 mM LA/L + 5 mM ORN/L, 10 mM LAORN/L) | protection against autooxidation of linoleic acid ([2]; FIG. 8: 50 mM LA/L, 50 mM ORN/L, 50 mM LA/L + 50 mM ORN/L, 100 mM LAORN/L) | Total LA in medium (after NaBH4 reduction) ([3]; 60 min) | Free LA in medium ([3]; 60 min, 37° C.) | Free LA in medium ([3]; Initial) | Total LA in medium (after NaBH4 reduction) ([3]; Initial) | stability under the test assay conditions ([3]; incubation medium, 37° C., 1 hour, recovery after reduction to DHLA) | Total LA in cells (after NaBH4 reduction) ([4]; CaCo-2 cells incubated 30 min) | Total LA in cells (after NaBH4 reduction) ([4]; CaCo-2 cells incubated 60 min) | Residual Ratio/% of lutein esters ([5]; 300 mg lutein esters, Dosage of LA 3 mg, Content of LA 1.0%) | Residual Ratio/% of lutein esters ([5]; Dosage of LA 15 mg, Content of LA 4.8%) | Residual Ratio/% of lutein esters ([5]; Dosage of LA 30 mg, Content of LA 9.1%) | Residual Ratio/% of lutein esters ([5]; Dosage of LA 60 mg, Content of LA 16.7%) | Residual Ratio/% of lutein esters ([5]; Dosage of LA 150 mg, Content of LA 33.3%) | Residual Ratio/% of lutein esters ([5]; Dosage of LA 300 mg, Content of LA 50.0%) |
| --- | --- | --- | --- | --- | --- | --- | --- | --- | --- | --- | --- | --- | --- | --- | --- | --- | --- | --- |
| [BH4-].[Na+] [Control, NaBH4] | 22.7% | 100.0% | 100.0% | – | – | – | – | – | – | – | – | – | – | – | – | – | – | – |
| O=C(O)CCCCC1CCSS1 (stereo not drawn) [LA, 1,2-dithiolane-3-pentanoic acid] | 7.2% | 22.2% | 24.7% | full protection | full protection | bld | 0.74 mg/mL | 0.89 mg/mL | bld | stable | bld | bld | 42.7% | 46.5% | 79.5% | 80.1% | 79.4% | 82.4% |
